Reference: EP0594890A1, “Polycyclic compounds, their preparation and their use as phosphodiesterases inhibitors” (TSUMURA & CO., priority 1992, dated 1994)

What was measured:
[1] = test system: Bovine heart PDE; experiment: Bovine heart PDE inhibition activity; type: biochemical; conditions: substrate [³H]-cyclic AMP, 37°C for 30 minutes; compound concentration not given
Method: [Bovine heart PDE inhibition activity]
Placed in a test tube were 50 µℓ of 0.5 M tris-HCl buffer (pH 7.5), 50 µℓ of 50 mM magnesium chloride, 50 µℓ of an enzyme solution (bovine heart, product of Boheringer Mannheim Yamanouchi Co., Ltd.), and a dimethylsulfoxide (DMSO) solution of the compound obtained in each example. Purified water was then added to a total volume of 450 µℓ, followed by incubation at 37°C for 3 minutes. Then, 50 µℓ or [³H]-cyclic AMP (0.01 mM, 1.0 x 1.0⁻⁶ dpm) as a substrate were added to initiate a reaction. After incubated at 37°C for 30 minutes, the test tube was heated for 3 minutes in a boiling water bath to terminate the reaction. After cooling, snake venem (500 µg) was added, followed by incubation at 37°C for 30 minutes. An ion-exchange resin ("Dowex-AG1-X8", trade name) was then added, followed by stirring and centrifugation. A supernatant was sampled and its radioactivity was measured by a liquid scintillation counter. Percent inhibition was determined in accordance with the following formula: [formula] where, C: Radioactivity when the compound in the example was not contained. S: Radioactivity when the compound in the example was added.

[2] = test system: Platelet phosphodiesterase (PDE); experiment: Platelet phosphodiesterase (PDE) inhibition activity in washed platelets; type: biochemical, rabbit; conditions: 500 µM as the final concentration of the compound; washed platelet mixture; substrate [³H]-cyclic AMP, 37°C for 30 minutes
Description: [Preparation of washed platelets]
A rabbit was held on its back on a fixing table and, under non-anesthesia, the leg femoral artery was cannulated. Next, 2 mℓ of a 3.8% aqueous solution of sodium citrate were placed in a 20-mℓ plastic syringe and 18 mℓ of the arterial blood were collected. The syringe was caused to fall down 2-3 times so that its contents were mixed. The above procedures were repeated using 3-4 syringes. The blood so collected was transferred into a plastic-made test tube and centrifuged at 800 rpm for 10 minutes at room temperature to settle blood cells, whereby an upper layer (PRP) was obtained. The PRP was next centrifuged at 3000 rpm for 10 minutes so that platelets were collected. After 12.3 mM tris-HCl buffer (pH 7.4) containing 0.137 M of NaCl, 1.54 mM of EDTA and 20 mM of glucose was added to the platelets and pipetting was conducted thoroughly, centrifugation was conducted at 3000 rpm for 10 minutes. The above procedures were repeated twice. Precipitated platelets were re-suspended in the above tris-HCl buffer at a platelet concentration of 6.5 x 10⁻⁶ platelets/µℓ. They were used as washed platelets in the subsequent experiments.
[Platelet phosphodiesterase (PDE) inhibition activity]
Placed in a test tube were 50 µℓ of 0.5 M tris-HCl buffer (pH 7.5), 50 µℓ of 50 mM magnesium chloride, 200 µℓ of the washed platelet mixture, and a dimethylsulfoxide (DMSO) solution of the compound (500 µM as the final concentration of the compound) obtained in each example. Purified water was added to a total volume of 450 µℓ, followed by incubation at 37°C for 3 minutes. Then, 50 µℓ off [³H]-cyclic AMP (0.01 mM, 1.0 x 1.0⁻⁶ dpm) as a substrate were added to initiate a reaction. […] A supernatant was sampled and its radioactivity was measured by a liquid scintillation counter. Percent inhibition was determined in accordance with the following formula: [formula] where, C: Radioactivity when the compound in the example was not contained. S: Radioactivity when the compound in the example was added.

Row | Compound | Inhibition rate (%) Bovine heart PDE [1] [%] | Inhibition rate (%) Platelet PDE [2] [%]
1 | COc1cc2c(c(OC)c1OC)-c1c(cc3c(c1OC)OCO3)C[C@@H]1COC(=O)C1=C2 (single isomer, unassigned) [Test Compound 2] | 0.0 | 25.3
2 | COc1cc2c(c(OC)c1OC)-c1c(cc3c(c1OC)OCO3)C[C@@H]1COC(=O)C1=C2 (single isomer, unassigned) [Test Compound 4, (3as,Sbiar)-3a,4-Dihydro-8,9,10,11-tetramethoxy-6,7-methylenedioxydibenzo[4,5:6,7]cycloocta-[1,2-c]furan-1(3H)-one] | 0.0 | 23.1
3 | COc1cc2c(c(OC)c1OC)-c1c(cc(OC)c(OC)c1OC)C[C@@H]1COC(=O)C1=C2 (single isomer, unassigned) [Test Compound 7] | 50.9 | –
4 | COc1cc2c(c(OC)c1OC)-c1c(cc(OC)c(OC)c1OC)C[C@@H]1COC(=O)C1=C2 (single isomer, unassigned) [Test Compound 8] | 36.3 | –
5 | COc1cc2c(c(OC)c1OC)-c1c(cc(O)c(O)c1OC)C[C@@H]1COC(=O)C1=C2 [Test Compound 1, (3aS,Rbiar)-3a,4-Dihydro-6,7-dihydroxy-8,9,10,11-tetramethoxydibenzo[4,5:6,7)cycloocta[1,2-c]furan-1(3H)-one] | 85.0 | –
6 | COc1cc2c(c(OC)c1OC)-c1c(cc(OC)c3c1OCO3)C[C@@H]1COC(=O)C1=C2 [Test Compound 3, (3aS,Rbiar)-3a,4-Dihydro-6,9,10,11-tetramethoxy-7,8-methylenedioxydibenzo[4,5:6,7)cycloocta[1,2-c]furan-1(3H)-one] | 19.5 | –
7 | COc1cc2c(c(OC)c1OC)-c1c(cc(OC)c3c1OCO3)C[C@H]1COC(=O)C1=C2 [Test Compound 5, (3aR,Sbiar)-3a,4-Dihydro-6,9,10,11-tetramethoxy-7,8-methylenedioxybenzo[4,5:6,7]cycloocta[1,2-c]furan-1(3H)-one] | 2.8 | 44.0
8 | COc1cc2c(c(OC)c1OC)-c1c(cc(O)c(O)c1OC)CC1COC(=O)C1=C2 (stereo not drawn) [Test Compound 6, (3aRS,SRbiar)-3a,4-Dihydro-6,7-dihydroxy-8,9,10,11-tetramethoxydibenzo[4,5:6,7]cycloocta[1,2-c]-furan-1(3H)-one] | 90.5 | –
